Test system: 293T cells
Assay: Western blot of protein expressed from wild-type and human codon optimized foamyvirus gag, pol and env constructs
Assay type: cell-based
Conditions: optimized vs wild-type sequence
Source text: To assessing the amount of protein that was present in virus producing cells upon transfection of the human codon usage-optimized cDNAs in comparison with the wild-type sequences, 293T packaging cells were transfected with equal amounts of the corresponding plasmids in sequential dilutions. DNA (pUC19) from a cloning vector was utilized to keep the absolute amount of DNA transfected into 293T cells the same. For FV gag and pol, the only difference between the two plasmids was the optimization of the FV gene for human codon usage. For the PFV env gene, the human optimized ORF in a vector with slice donor and acceptor sites was compared to the non-optimzed sequence expressed without splice sites in the same vector. Additionally, the expression of optimized simian FV (SFV) env contained on pUC19, like the above comparisons, was compared to a non-optimized SFV env contained on a pCL (Promega).

## SFV-1 env: Homo sapiens optimized Env cDNA from Simian Foamy Virus (SFV-1) (SEQ. ID. No. 4)
  protein levels increased through optimization of the FV genes for human codon usage: increased

From patent US20120141440A1, “FOAMYVIRUS VECTORS AND METHODS OF USE” (priority 2009, published 2012)
